Assay results reported in US20200247855A1, “THERAPY AND DIAGNOSTICS” (OXFORD UNIVERSITY INNOVATION LIMITED, priority 2017, published 2020).
One block for each molecule: values may come before it. Residues, ends and D or L forms follow the SMILES beside them. No end group written: not given here. *: point of attachment. FITC = O=C1OC2(c3ccc(O)cc3Oc3cc(O)ccc32)c2ccc(NC(=S)*)cc21

What was measured:
CXCL1 = molecular target: T1, CXCL1 (Homo sapiens, UniProt P09341); assay: Fluorescence polarisation (anisotropy) assay; type: binding; conditions: labelled peptide 50 nM, chemokine 1 μM; negative control chemokine
T1 sequence (P09341 35-107): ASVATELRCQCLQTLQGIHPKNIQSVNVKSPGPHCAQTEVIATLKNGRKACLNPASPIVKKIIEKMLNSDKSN
Protocol: (§1) FIG. 14(B). Fluorescence polarisation assay showing binding of chemokines to P672_PEP-FITC. The measured fluorescence anisotropy (y-axis) of P672_PEP-FITC (50 nM) following binding to a fixed dose (1 μM)) of CCL7, CCL8, CCL18 and CXCL1 (negative control). […] Statistical significance was determined using one-way ANOVA with Sidak's correction for multiple comparisons using Graph Pad Prism 6. **=p<0.005, ****=P<0.00005, ns=not significant.
Fluorescence polarization assays were performed using a Clariostar (BMG Tech) plate reader with the supplied FITC excitation and emission filters using 96 half area well plates (Corning). The buffer used (FP assay buffer) was 50 mM HEPES, 150 mM NaCl, 0.1% BSA, 0.002% TWEEN-20, 0.2% DMSO, pH 7.4 and the final volume in each well was 30 μL. […] The polarization of the emitted light in the FITC emission channel was then determined. […] Screening of P672 peptide fragments was achieved through incubation of each peptide (50 nM) with 1 μM CCL8 (Peprotech) for 30 minutes in FP assay buffer and the resulting anisotropy of the emitted light determined as above. The chemokine cross binding screen was performed by incubating 1 μM chemokine (Peprotech) with 50 nM BK1.1FITC for half an hour in FP assay buffer and the resulting anisotropy of the emitted light determined as above. […]

CCL18 = molecular target: T2, CCL18 (Homo sapiens, UniProt P55774); assay: Fluorescence polarisation (anisotropy) assay; type: binding; conditions: labelled peptide 50 nM, chemokine 1 μM
T2 construct: purchased Peprotech
T2 sequence (P55774 21-89): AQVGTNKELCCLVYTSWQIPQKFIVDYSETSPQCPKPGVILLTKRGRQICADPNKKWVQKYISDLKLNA
Protocol: as §1
(§2) FIG. 15(C). Displacement of P672_PEP-FITC from CCL18 by P672_PEP. In each case 100 μM (++) or […] (+) of P672_PEP was incubated with P672_PEP-FITC (50 nM)/chemokine (1 μM CCL7 and CCL18; 500 nM CCL8) and the resulting anisotropy measured. A peptide with the P672_PEP sequence scrambled ([…]) served as a negative control (P672_PEP_SCRAM; […]). Experiment carried out in triplicate where each data point is the average of one experiment carried out in technical triplicate. Mean with SEM shown and statistical significance was determined using one-way ANOVA with Sidak's correction for multiple comparisons using Graph Pad Prism 6. *=p<0.05, ***=p<0.0005, ****=P<0.00005, ns=not significant.
(§3) Fluorescence polarization assays were performed using a Clariostar (BMG Tech) plate reader with the supplied FITC excitation and emission filters using 96 half area well plates (Corning). The buffer used (FP assay buffer) was 50 mM HEPES, 150 mM NaCl, 0.1% BSA, 0.002% TWEEN-20, 0.2% DMSO, pH 7.4 and the final volume in each well was 30 μL. Polarization was converted to anisotropy using the equation A=(2*P)/(3−P) where P is polarization and A is anisotropy. For each peptide tested the gain was set to 35 mP and adjusted to a well containing fluorescent peptide only. The polarization of the emitted light in the FITC emission channel was then determined. Experiments were performed as two technical and three biological replicates. Screening of P672 peptide fragments was achieved through incubation of each peptide (50 nM) with 1 μM CCL8 (Peprotech) for 30 minutes in FP assay buffer and the resulting anisotropy of the emitted light determined as above. The chemokine cross binding screen was performed by incubating 1 μM chemokine (Peprotech) with 50 nM BK1.1FITC for half an hour in FP assay buffer and the resulting anisotropy of the emitted light determined as above. To monitor BK1.1FITC Ala mutants of binding to CCL8, 50 nM labelled peptide was incubated with varying concentrations of recombinant CCL8 (0-25 μM, final) in 30 μL FP assay buffer for 30 minutes and the resulting anisotropy of the emitted light determined as above. The anisotropy was plotted as a function of CCL8 concentration and fitted to the equation: Y=Bmax*X/(KD+X)+NS*X+Background, where Y is the measured anisotropy, X is the concentration of CCL8 added, Bmax is the maximum binding, KD is the equilibrium dissociation constant, NS is the slope of the nonlinear regression and Background is the anisotropy when no CCL8 is present, in Graph Pad Prism. Displacement assays were carried out with CCL7, CCL8, and CCL18 (Peprotech, 1 μM). […] For all FP assays, the experiments were carried out as two technical and three biological replicates.

CCL7 = molecular target: T3, CCL7 (Homo sapiens, UniProt P80098); assay: Fluorescence polarisation (anisotropy) assay; type: binding; conditions: labelled peptide 50 nM, chemokine 1 μM
T3 construct: purchased Peprotech
Protocol: as §1, §2, §3

CCL8 = molecular target: T4, CCL8 (Homo sapiens, UniProt P80075); assay: Fluorescence polarisation (anisotropy) assay; type: binding; conditions: labelled peptide 50 nM, CCL8 1 μM
T4 construct: SUMO (in-house protein only) (cleaved yes); made in house; host or cells: Escherichia coli RosettaGami 2 (DE3)
T4 sequence (P80075 24-99): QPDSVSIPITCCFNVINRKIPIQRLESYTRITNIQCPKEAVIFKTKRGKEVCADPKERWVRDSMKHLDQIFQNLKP
From the text: FIG. 14. Characterisation of P672_PEP-FITC by fluorescence polarisation. […] Residue C30 was mutated to A to avoid an unpaired cysteine residue. The residues corresponding to the above peptide are wholly contained within the CCL8-binding region of P672_RHIPU transferred in the hybrid evasin P672:EVA1 (SEQ ID 76, see FIG. 5). […] (SEQ ID NO: 90). FIG. 14(A). […] The curve was fitted to the two site-total and non-specific binding model in GraphPad Prism 6. Data are shown as mean and SEM of three independent experiments, with each independent experiment performed as three technical replicates. The affinity constant Kd was calculated in GraphPad Prism from the curve fit with the standard error reported.
as §1, with “Fluorescence polarisation assay showing binding of chemokines to P672_PEP-FITC.” left out
FIG. 15(C). […] In each case 100 μM (++) or […] (+) of P672_PEP was incubated with P672_PEP-FITC (50 nM)/chemokine (1 μM CCL7 and CCL18; 500 nM CCL8) and the resulting anisotropy measured. […] Experiment carried out in triplicate where each data point is the average of one experiment carried out in technical triplicate. Mean with SEM shown and statistical significance was determined using one-way ANOVA with Sidak's correction for multiple comparisons using Graph Pad Prism 6. *=p<0.05, ***=p<0.0005, ****=P<0.00005, ns=not significant.
as §3, with “To monitor BK1.1FITC Ala mutants of binding to CCL8, 50 nM labelled peptide was incubated with varying concentrations of recombinant CCL8 (0-25 μM, final) in 30 μL FP assay buffer for 30 minutes and the resulting anisotropy of the emitted light determined as above.” left out

[1] = test system: human CCL5 together with CXCL8, CXCL1, CCL3 or CCL2; assay: Biolayer interferometry polyvalent binding (association with CCL5, then CCL5 plus second chemokine); conditions: BLI, wavelength shift in association 2
From the text: FIG. 10. Polyvalent binding of CC and CXC chemokines to two-warhead evasins. […] This was followed by association with CCL5+CXCL8 (light grey trace), or with CCL5+CXCL1 (dark grey trace) or CCL5+CCL3 (black trace) (association 2), and then dissociated in buffer (dissociation).
FIG. 11. Polyvalent binding of CC and CXC chemokines to two-warhead evasins. […] This was followed by association with CCL5+CXCL8 (light grey trace), or with CCL5+CXCL1 (dark grey trace) or CCL5+CCL2 (black trace) (association 2), and then dissociated in buffer (dissociation).
The ability of 2-warhead evasins to engage in polyvalent binding of CC and CXC chemokines was further determined.

[2] = molecular target: T5, His-tagged P672-biotinylated CCL3 interaction (Homo sapiens, UniProt P10147); assay: AlphaScreen disruption of P672:chemokine interaction; type: binding; conditions: AlphaScreen, peptide 100 μM
T5 construct: host or cells: P672: HEK293F (in-house); biotinylated CCL3: not described
T5 sequence (P10147 24-92): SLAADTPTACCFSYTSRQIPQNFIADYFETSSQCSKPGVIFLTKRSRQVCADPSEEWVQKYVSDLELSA
Protocol: (§4) B-D. Effect of indicated peptides at a concentration of 100 μM on a His-tagged P672-biotinylated CCL8, CCL2 or CCL3 interaction respectively using an AlphaScreen assay. In each panel. […] Data are presented as mean±s.e.m. of three independent experiments, shown as individual data points.
(§5) Data are shown as mean of two technical replicates. Curves were fitted with 4 parameters to estimate IC50.
(§6) The binding of these peptides to CCL8 was assayed by examining their ability to disrupt the P672:CCL8 interaction using an AlphaScreen assay (FIG. 20E, H). […] BK1 derivatives were tested for their ability to inhibit P672 interactions with CCL2 and CCL3 using AlphaScreen (FIG. 20 F, G, I, J).
(§7) AlphaScreen® Histidine detection kit was purchased from PerkinElmer (6760619M lot: 2457886) and the assay was set up in white bottom Proxiplate™ 384 Plus microplates (PerkinElmer) following the manufacturer's instructions. The assay buffer used was 50 mM HEPES, 150 mM NaCl, 0.1% BSA, 0.01% Tween20, 1% DMSO, pH 7.5 and the final volume in each well was 20 μL. Briefly, biotinylated chemokine (recombinant, final concentration 1.25 nM (CCL8), 5 nM (CCL2) and 2.5 nM (CCL3)) was pre-incubated at room temperature for 15 min with different concentrations of each peptide. His-tagged P672 (final concentration 2.5 nM (CCL8), 5 nM (CCL2) and 1.25 nM (CCL3)) was then added to each well and the plate was incubated at room temperature for 30 min. Finally, acceptor and donor beads were added as a 1:1 suspension in buffer to each well and the plate was further incubated at RT for 1 h. Data was obtained by reading the plate using a Pherastar FSX plate reader (excitation 680 nm, emission 570 nm) and was analysed using GraphPad Prism.

[3] = molecular target: T6, His-tagged P672-biotinylated CCL8 interaction (Homo sapiens, UniProt P80075); assay: as above; type: binding; conditions: peptide 100 μM
T6 construct: SUMO (cleaved yes); biotin (enzymatic, BirA co-expression); made in house; host or cells: CCL8: Escherichia coli RosettaGami 2 (DE3); P672: HEK293F
T6 sequence (P80075 24-99): T4 sequence (P80075 24-99)
Protocol: as §4, §5, §6, §7

[4] = molecular target: T7, His-tagged P672-biotinylated CCL2 interaction (Homo sapiens, UniProt P13500); assay: as above; type: binding; conditions: AlphaScreen, peptide 100 μM
T7 construct: host or cells: P672: HEK293F (in-house); biotinylated CCL2: not described
Protocol: as §4, §5, §6, §7

T3 sequence (P80098 24-99): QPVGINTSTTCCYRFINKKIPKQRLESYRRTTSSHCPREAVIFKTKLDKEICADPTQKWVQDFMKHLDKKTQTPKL
Sequence of human CCL5 together with CXCL8, CXCL1, CCL3 or CCL2 (P13501 24-91): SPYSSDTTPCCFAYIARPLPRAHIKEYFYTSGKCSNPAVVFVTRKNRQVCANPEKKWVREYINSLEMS
T7 sequence (P13500 24-99): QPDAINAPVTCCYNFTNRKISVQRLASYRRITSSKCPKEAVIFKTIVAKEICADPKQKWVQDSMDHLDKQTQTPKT

Molecule: CC(C)[C@H](NC(=O)[C@@H]1CCCN1C(=O)[C@H](CCCCN)NC(=O)[C@H](Cc1ccccc1)NC(=O)[C@H](Cc1ccccc1)NC(=O)[C@H](CC(=O)O)NC(=O)[C@H](CCC(=O)O)NC(=O)[C@H](Cc1ccc(O)cc1)NC(=O)[C@H](CC(=O)O)NC(=O)[C@H](CCC(=O)O)NC(=O)[C@H](CC(=O)O)NC(=O)[C@H](CCC(=O)O)NC(=S)Nc1ccc2c(c1)C(=O)OC21c2ccc(O)cc2Oc2cc(O)ccc21)C(=O)N[C@H](C(=O)N[C@@H](C)C(=O)N[C@@H](Cc1ccc(O)cc1)C(=O)N[C@@H](Cc1ccccc1)C(N)=O)[C@@H](C)O [BK1.1FITC] ({FITC}-EDEDYEDFFKPVTAYF-NH2)
- Binding to CXCL1 (change in anisotropy) (CXCL1): not
- Binding to CCL18 (change in anisotropy) (CCL18): significant increase in anisotropy
- Binding to CCL18 (change in anisotropy) (CCL18; listed as P672_PEP-FITC): able to bind
- Binding to CCL7 (change in anisotropy) (CCL7): significant increase in anisotropy
- Binding to CCL7 (change in anisotropy) (CCL7; listed as P672_PEP-FITC): able to bind
- Binding to CCL8 (change in anisotropy) (CCL8): significant increase in anisotropy
- Binding to CCL8 (change in anisotropy) (CCL8; listed as BK1.1FTC): increase in anisotropy
- Binding to CCL8 (change in anisotropy) (CCL8; listed as P672_PEP-FITC): able to bind

Molecule: P1243:P1156: two-warhead evasin: P1243_AMBAM linked via GGGGS linker to P1156_IXORI
- Polyvalent (simultaneous) binding of CC and CXC chemokines [1]: can associate simultaneously with CCL5 and either CXCL8 or CXCL1

- Disruption of the P672-CCL3 interaction [2]: disrupted
- Disruption of the P672-CCL8 interaction [3]: significantly disrupt
- Disruption of the P672-CCL2 interaction [4]: disrupted
Molecule: Y21F32: shorter peptide Y21-F32 of P672 without the C30A mutation (YEDFFKPVTCYF-NH2)
